Test results reported in PubChem BioAssay AID1918939 (Molecular Pharmacology Branch, DTP, NCI, 2023).

Tested on: 653999-131-R-J2-PDC complex spheroid viability
Assay: Anticancer human tumor 653999-131-R-J2-PDC patient-derived lung adenocarcinoma cell line growth inhibition
Details: for IC50: curve of first compound; for viability, T/C: stronger effect = lower value
Summary of the method: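 Drug combinations with the LSD1 inhibitor iadademstat tested on tumor cells co-cultured as spheroids with endothelial cells and mesenchymal stem cells. Concentrations descended in half-log increments from clinical Cmax or 10 microM.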

[1] = second compound 0.1 µM, first compound 0.000316 µM
[2] = second compound 0.1 µM, first compound 0.001 µM
[3] = second compound 0.1 µM, first compound 0.00316 µM
[4] = second compound 0.1 µM, first compound 0.01 µM
[5] = second compound 0.1 µM, first compound 0.0316 µM
[6] = second compound 0.1 µM, first compound 0.1 µM
[7] = second compound 0.316 µM, first compound 0.000316 µM
[8] = second compound 0.316 µM, first compound 0.001 µM
[9] = second compound 0.316 µM, first compound 0.00316 µM
[10] = second compound 0.316 µM, first compound 0.01 µM
[11] = second compound 0.316 µM, first compound 0.0316 µM
[12] = second compound 0.316 µM, first compound 0.1 µM
[13] = second compound 1 µM, first compound 0.000316 µM
[14] = second compound 1 µM, first compound 0.001 µM
[15] = second compound 1 µM, first compound 0.00316 µM
[16] = second compound 1 µM, first compound 0.01 µM
[17] = second compound 1 µM, first compound 0.0316 µM
[18] = second compound 1 µM, first compound 0.1 µM
[19] = second compound 3.16 µM, first compound 0.000316 µM
[20] = second compound 3.16 µM, first compound 0.001 µM
[21] = second compound 3.16 µM, first compound 0.00316 µM
[22] = second compound 3.16 µM, first compound 0.01 µM
[23] = second compound 3.16 µM, first compound 0.0316 µM
[24] = second compound 3.16 µM, first compound 0.1 µM
[25] = second compound 10 µM, first compound 0.000316 µM
[26] = second compound 10 µM, first compound 0.001 µM
[27] = second compound 10 µM, first compound 0.00316 µM
[28] = second compound 10 µM, first compound 0.01 µM
[29] = second compound 10 µM, first compound 0.0316 µM
[30] = second compound 10 µM, first compound 0.1 µM
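Further: spheroids exposed to agents for seven days before readout.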

With `CC(C)CC(NC(=O)C(Cc1ccccc1)NC(=O)c1cnccn1)B(O)O` (stereo not given) + NC1CCC(NC2CC2c2ccccc2)CC1 the IC50 (second compound 0.1 µM) was 2.28 nM, the IC50 (second compound 0.316 µM) was 2.47 nM and the IC50 (second compound 1 µM) was 2.96 nM. It also gave an IC50 (second compound 3.16 µM) of 2.31 nM, an IC50 (second compound 10 µM) of 2.2 nM and a viability, T/C [1] of 108%. The viability, T/C [2] was 107%, the viability, T/C [3] was 27.5% and the viability, T/C [4] was 3.82%. The viability, T/C [5] was 2.01%, the viability, T/C [6] was 1.51% and the viability, T/C [7] was 123%. It also gave a viability, T/C [8] of 124%, a viability, T/C [9] of 30.1% and a viability, T/C [10] of 5.95%. The viability, T/C [11] was 0.76%, the viability, T/C [12] was 1.38% and the viability, T/C [13] was 115%. For the same compound, the viability, T/C [14] was 115%, the viability, T/C [15] was 46.1% and the viability, T/C [16] was 4.39%. The viability, T/C [17] was 1.9%, the viability, T/C [18] was 1.12% and the viability, T/C [19] was 97.6%. It also gave a viability, T/C [20] of 123%, a viability, T/C [21] of 27.4% and a viability, T/C [22] of 3.37%. For the same compound, the viability, T/C [23] was 1.02%, the viability, T/C [24] was 2.22% and the viability, T/C [25] was 117%. For the same compound, the viability, T/C [26] was 119%, the viability, T/C [27] was 18.5% and the viability, T/C [28] was 2.92%. It also gave a viability, T/C [29] of 1.36% and a viability, T/C [30] of 0.56%.
For `CC(C)CC(NC(=O)CNC(=O)c1cc(Cl)ccc1Cl)B1OC(=O)CC(CC(=O)O)(C(=O)O)O1` (stereo not given) + NC1CCC(NC2CC2c2ccccc2)CC1, the IC50 (second compound 0.1 µM) was 9.68 nM, the IC50 (second compound 0.316 µM) was 13.9 nM and the IC50 (second compound 1 µM) was 10.9 nM. It also gave an IC50 (second compound 3.16 µM) of 11.1 nM, an IC50 (second compound 10 µM) of 11.5 nM and a viability, T/C [1] of 98.5%. It also gave a viability, T/C [2] of 102%, a viability, T/C [3] of 106% and a viability, T/C [4] of 48.4%. The viability, T/C [5] was 28.5%, the viability, T/C [6] was 10.7% and the viability, T/C [7] was 80.7%. For the same compound, the viability, T/C [8] was 102%, the viability, T/C [9] was 99% and the viability, T/C [10] was 60.4%. It also gave a viability, T/C [11] of 21.9%, a viability, T/C [12] of 8.68% and a viability, T/C [13] of 87.8%. For the same compound, the viability, T/C [14] was 90.5%, the viability, T/C [15] was 95.8% and the viability, T/C [16] was 52.7%. The viability, T/C [17] was 19.4%, the viability, T/C [18] was 10.1% and the viability, T/C [19] was 99.1%. It also gave a viability, T/C [20] of 85.4%, a viability, T/C [21] of 106% and a viability, T/C [22] of 53.1%. It also gave a viability, T/C [23] of 26.5%, a viability, T/C [24] of 9.89% and a viability, T/C [25] of 98.2%. It also gave a viability, T/C [26] of 104%, a viability, T/C [27] of 122% and a viability, T/C [28] of 55.4%. For the same compound, the viability, T/C [29] was 18.4% and the viability, T/C [30] was 5%.
`Nc1ccccc1NC(=O)c1ccc(CNC(=O)OCc2cccnc2)cc1` + NC1CCC(NC2CC2c2ccccc2)CC1 gave an IC50 (second compound 0.1 µM) of 349 nM, an IC50 (second compound 0.316 µM) of 228 nM and an IC50 (second compound 1 µM) of 394 nM. The IC50 (second compound 3.16 µM) was 294 nM, the IC50 (second compound 10 µM) was 301 nM and the viability, T/C (second compound 0.1 µM, first compound 0.00949 µM) was 68.4%. For the same compound, the viability, T/C (second compound 0.1 µM, first compound 0.03 µM) was 68.1%, the viability, T/C (second compound 0.1 µM, first compound 0.0949 µM) was 57.1% and the viability, T/C (second compound 0.1 µM, first compound 0.3 µM) was 54.3%. The viability, T/C (second compound 0.1 µM, first compound 0.949 µM) was 35.8%, the viability, T/C (second compound 0.1 µM, first compound 3 µM) was 9.78% and the viability, T/C (second compound 0.316 µM, first compound 0.00949 µM) was 70.5%. It also gave a viability, T/C (second compound 0.316 µM, first compound 0.03 µM) of 61.3%, a viability, T/C (second compound 0.316 µM, first compound 0.0949 µM) of 56.1% and a viability, T/C (second compound 0.316 µM, first compound 0.3 µM) of 49%. It also gave a viability, T/C (second compound 0.316 µM, first compound 0.949 µM) of 33.2%, a viability, T/C (second compound 0.316 µM, first compound 3 µM) of 8.88% and a viability, T/C (second compound 1 µM, first compound 0.00949 µM) of 75.3%. It also gave a viability, T/C (second compound 1 µM, first compound 0.03 µM) of 69.7%, a viability, T/C (second compound 1 µM, first compound 0.0949 µM) of 65.1% and a viability, T/C (second compound 1 µM, first compound 0.3 µM) of 52.4%. For the same compound, the viability, T/C (second compound 1 µM, first compound 0.949 µM) was 38.5%, the viability, T/C (second compound 1 µM, first compound 3 µM) was 8.55% and the viability, T/C (second compound 3.16 µM, first compound 0.00949 µM) was 69.6%. It also gave a viability, T/C (second compound 3.16 µM, first compound 0.03 µM) of 77.9%, a viability, T/C (second compound 3.16 µM, first compound 0.0949 µM) of 57.1% and a viability, T/C (second compound 3.16 µM, first compound 0.3 µM) of 46.9%. For the same compound, the viability, T/C (second compound 3.16 µM, first compound 0.949 µM) was 36.3%, the viability, T/C (second compound 3.16 µM, first compound 3 µM) was 8.4% and the viability, T/C (second compound 10 µM, first compound 0.00949 µM) was 74.6%. For the same compound, the viability, T/C (second compound 10 µM, first compound 0.03 µM) was 62%, the viability, T/C (second compound 10 µM, first compound 0.0949 µM) was 54.6% and the viability, T/C (second compound 10 µM, first compound 0.3 µM) was 57.4%. It also gave a viability, T/C (second compound 10 µM, first compound 0.949 µM) of 30.8% and a viability, T/C (second compound 10 µM, first compound 3 µM) of 5.06%.
`O=C(c1cc(Cc2n[nH]c(=O)c3ccccc23)ccc1F)N1CCN(C(=O)C2CC2)CC1` + NC1CCC(NC2CC2c2ccccc2)CC1 was tested, and the IC50 (second compound 0.1 µM) was > 10000 nM, the IC50 (second compound 0.316 µM) was > 10000 nM and the IC50 (second compound 1 µM) was > 10000 nM. The IC50 (second compound 3.16 µM) was > 10000 nM, the IC50 (second compound 10 µM) was > 10000 nM and the viability, T/C [5] was 86.2%. For the same compound, the viability, T/C [6] was 94.2%, the viability, T/C (second compound 0.1 µM, first compound 0.316 µM) was 80.7% and the viability, T/C (second compound 0.1 µM, first compound 1 µM) was 87.7%. The viability, T/C (second compound 0.1 µM, first compound 3.16 µM) was 81.6%, the viability, T/C (second compound 0.1 µM, first compound 10 µM) was 57.6% and the viability, T/C [11] was 99.5%. It also gave a viability, T/C [12] of 93.6%, a viability, T/C (second compound 0.316 µM, first compound 0.316 µM) of 98.3% and a viability, T/C (second compound 0.316 µM, first compound 1 µM) of 84.6%. The viability, T/C (second compound 0.316 µM, first compound 3.16 µM) was 70.1%, the viability, T/C (second compound 0.316 µM, first compound 10 µM) was 53% and the viability, T/C [17] was 103%. It also gave a viability, T/C [18] of 92.5%, a viability, T/C (second compound 1 µM, first compound 0.316 µM) of 109% and a viability, T/C (second compound 1 µM, first compound 1 µM) of 81%. For the same compound, the viability, T/C (second compound 1 µM, first compound 3.16 µM) was 71.5%, the viability, T/C (second compound 1 µM, first compound 10 µM) was 56.9% and the viability, T/C [23] was 91.3%. It also gave a viability, T/C [24] of 104%, a viability, T/C (second compound 3.16 µM, first compound 0.316 µM) of 84.8% and a viability, T/C (second compound 3.16 µM, first compound 1 µM) of 84.7%. It also gave a viability, T/C (second compound 3.16 µM, first compound 3.16 µM) of 85.1%, a viability, T/C (second compound 3.16 µM, first compound 10 µM) of 58.5% and a viability, T/C [29] of 113%. It also gave a viability, T/C [30] of 93.9%, a viability, T/C (second compound 10 µM, first compound 0.316 µM) of 102% and a viability, T/C (second compound 10 µM, first compound 1 µM) of 92.2%. For the same compound, the viability, T/C (second compound 10 µM, first compound 3.16 µM) was 76.4% and the viability, T/C (second compound 10 µM, first compound 10 µM) was 60%.
